Experiment: Tissue distribution of radioactivity by Quantitative Whole-Body Autoradiography (QWBA), Group 4
Format: in vivo
Details: rat, single IV 2 mg/kg
Description: A study was conducted to determine the pharmacokinetics, rates and routes of excretion with mass baseline and tissue distribution of radioactivity, after a single intravenous dose administration of formula XIII (also referred to as [^14C]DAP) was administered to the rats by tail vein intravenous injection at a
The study was conducted on 19 male rats divided into 4 groups. The first group of 6 rats was used for blood collection (Group 1); the second group of 4 rats was used for urine, feces, cage rinses and wipes and carcasses collection (Group 2); the third group of 4 rats was used for expired air collection (Group 3); the fourth group of 5 rats was used for terminal blood/serum and tissue distribution by Quantitative Whole-Body Autoradiography (QWBA) (Group 4).
For Group 4, formula XIII (QWBA was run at 1, 8, 12, 24 and 72 hours post dose. After terminal blood collection, each euthanized animal was frozen in a hexane/dry ice bath and embedded in a 2% carboxymethylcellulose matrix according to MPI Research SOP ADME-112. The embedded carcasses were sectioned according to MPI Research SOP ADME-113 on a Leica CM3600 Cyromacrotome set to maintain −10 to −30° C. At least four fortified quality control standards of known radioactive concentration were placed into the frozen block prior to sectioning and used for section thickness quality control. The quality control standards were sectioned under the same conditions as the specimen. The intrasection and intersection variation of collected sections were determined by analyzing the quality control standards. Section variation must be less than 20% for quantitative analysis. Sections that were approximately 40μm thick were taken in the sagittal plane. Appropriate sections selected at various levels of interest in the block were collected to encompass the following tissues, organs, and biological fluids, where possible: adrenal gland, bladder (urinary) and contents (urine), blood (cardiac), bone, bone marrow, brain, eye, fat (brown), fat (white), heart, kidney, large intestine/cecum and contents, liver, lung, muscle, pancreas, prostate, salivary glands, skin, small intestine and contents, spleen, stomach and contents, testes, thymus, thyroid, mesenteric lymph nodes, and epididymis. A set of sections were mounted, exposed to phosphor imaging screens and scanned using the Storm 860 image acquisition system according to MPI Research SOP ADME-112. Quantification, relative to the calibration standards, were performed by image densitometry using MCID™ image analysis software according to MPI Research SOP ADME-114. A standard curve was constructed from the integrated response (MDC/mm2) and the nominal concentrations of the [^14C]Glucose calibration standards. Relative error should be less than 0.5 for each point on the curve. The concentrations of radioactivity were expressed as μCi/g and were converted to μg or ng-equivalents of DAP per gram of sample (μg- or ng-eq/g) using the specific activity of administered [^14C]DAP dose formulation. A lower limit of quantification (LLOQ) was applied to the data. The LLOQ was determined using the radioactive concentration of the lowest calibration standard used to generate a calibration curve divided by the specific activity of the dose formulation (μCi/ug). Artifacts, such as those produced by dislodged contents of the alimentary canal, were excluded from analysis during image analysis.

## [2H]C1([2H])N(CCCNC(=O)[C@@H](N)CCCNC(=N)N)C([2H])([2H])C([2H])([2H])N(CCCNC(=O)[C@@H](N)CCCNC(=N)N)C1([2H])[2H] [formula XIII]
12 Hours
  Concentration of Radioactivity in Liver: 3330 ng Equivalents [^14C]DAP/g
  Concentration of Radioactivity in Medulla: BLQ (Below limit of quantitation (<172 ng equivalents [^14C]PER977/g))
  Concentration of Radioactivity in Small intestine: 9975 ng Equivalents [^14C]DAP/g
  Concentration of Radioactivity in Spinal cord: BLQ (Below limit of quantitation (<172 ng equivalents [^14C]PER977/g))
  Concentration of Radioactivity in Stomach contents: BLQ (Below limit of quantitation (<172 ng equivalents [^14C]PER977/g))
  Concentration of Radioactivity in Thymus: 14584 ng Equivalents [^14C]DAP/g
  Concentration of Radioactivity in Urinary bladder: 1095 ng Equivalents [^14C]DAP/g
  Concentration of Radioactivity in Urine: 5011 ng Equivalents [^14C]DAP/g
24 Hours
  Concentration of Radioactivity in Bone marrow: 1987 ng Equivalents [^14C]DAP/g
  Concentration of Radioactivity in Eye (lens): BLQ (Below limit of quantitation (<172 ng equivalents [^14C]PER977/g))
  Concentration of Radioactivity in Gastric mucosa: 1438 ng Equivalents [^14C]DAP/g
  Concentration of Radioactivity in Kidney: 39548 ng Equivalents [^14C]DAP/g
  Concentration of Radioactivity in Kidney (cortex): 40820 ng Equivalents [^14C]DAP/g
  Concentration of Radioactivity in Kidney (medulla): 2011 ng Equivalents [^14C]DAP/g
  Concentration of Radioactivity in Large intestinal contents: 1801 ng Equivalents [^14C]DAP/g
  Concentration of Radioactivity in Small intestine: 5090 ng Equivalents [^14C]DAP/g
  Concentration of Radioactivity in Spinal cord: BLQ (Below limit of quantitation (<172 ng equivalents [^14C]PER977/g))
  Concentration of Radioactivity in Stomach contents: BLQ (Below limit of quantitation (<172 ng equivalents [^14C]PER977/g))
  Concentration of Radioactivity in Thymus: 11451 ng Equivalents [^14C]DAP/g
  Concentration of Radioactivity in Urinary bladder: 606 ng Equivalents [^14C]DAP/g
  Concentration of Radioactivity in Urine: 4553 ng Equivalents [^14C]DAP/g
72 Hours
  Concentration of Radioactivity in Blood: BLQ (Below limit of quantitation (<172 ng equivalents [^14C]PER977/g))
  Concentration of Radioactivity in Bone: BLQ (Below limit of quantitation (<172 ng equivalents [^14C]PER977/g))
  Concentration of Radioactivity in Bone marrow: 841 ng Equivalents [^14C]DAP/g
  Concentration of Radioactivity in Cerebellum: BLQ (Below limit of quantitation (<172 ng equivalents [^14C]PER977/g))
  Concentration of Radioactivity in Epididymis: BLQ (Below limit of quantitation (<172 ng equivalents [^14C]PER977/g))
  Concentration of Radioactivity in Kidney: 18515 ng Equivalents [^14C]DAP/g
  Concentration of Radioactivity in Kidney (cortex): 15748 ng Equivalents [^14C]DAP/g
  Concentration of Radioactivity in Kidney (medulla): 556 ng Equivalents [^14C]DAP/g
  Concentration of Radioactivity in Large intestinal contents: 824 ng Equivalents [^14C]DAP/g
  Concentration of Radioactivity in Medulla: BLQ (Below limit of quantitation (<172 ng equivalents [^14C]PER977/g))
  Concentration of Radioactivity in Muscle: BLQ (Below limit of quantitation (<172 ng equivalents [^14C]PER977/g))
  Concentration of Radioactivity in Seminal vesicles: BLQ (Below limit of quantitation (<172 ng equivalents [^14C]PER977/g))
  Concentration of Radioactivity in Small intestine: 1597 ng Equivalents [^14C]DAP/g
  Concentration of Radioactivity in Spinal cord: BLQ (Below limit of quantitation (<172 ng equivalents [^14C]PER977/g))
  Concentration of Radioactivity in Stomach contents: BLQ (Below limit of quantitation (<172 ng equivalents [^14C]PER977/g))
  Concentration of Radioactivity in Testes: BLQ (Below limit of quantitation (<172 ng equivalents [^14C]PER977/g))
  Concentration of Radioactivity in Thymus: 8365 ng Equivalents [^14C]DAP/g
  Concentration of Radioactivity in Urinary bladder: 283 ng Equivalents [^14C]DAP/g
  Concentration of Radioactivity in Urine: 3866 ng Equivalents [^14C]DAP/g

Source: patent US9999690B2, “Labeled compounds and methods of imaging, diagnosing cartilage disorders and diseases, and monitoring cartilage health using labeled and unlabeled compounds” (Perosphere Inc., priority 2013, dated 2018)
